# Patent US20250064886A1, “CARDIOVASCULAR AND CEREBROVASCULAR DRUG AND USE THEREOF” (HANGZHOU ADAMERCK PHARMLABS INC., priority 2021, published 2025)
# Marks after values point to notes of the source that are not given here.
# What was measured:
# [1] = system: rats with focal cerebral ischemia (MCAO)/reperfusion; experiment: Preventative administration, cerebral ischemia-reperfusion injury MCAO/R in rats (Example 5); assay type: in vivo, rat; conditions: preventative; for Cerebral infarction rate (%): tail vein 3 days
# Method: Experimental method: SD rats were randomly divided into six groups, i.e., pseudosurgery group, model control group, positive control drug ozagre (6 mg/kg) group, and administration drug compound (1) high-dose (67.5 mg/kg) group, medium-dose (22.5 mg/kg) group, and low-dose (7.5 mg/kg) group. The administration group was pre-administered via tail vein injection, while the pseudosurgery group and model control group were given equal volumes of physiological saline once a day for 3 consecutive days. 10 minutes after the last administration, a rat MCAO/R model was established and performed reperfusion 2 hours post ischemia. 24 hours after MCAO reperfusion, the neurobehavioral scores of rats were performed to determine their neurological function; the cerebral infarction rate and cerebral water content in rats were determined using 2,3,5-triphenyltetrazolium chloride (TTC) staining method.
# GPX4 mRNA = GPX4 mRNA expression (real time PCR) in Erastin-induced neuronal cells (Example 8); assay type: cell-based, rat; conditions: Erastin 50 μM
# Method: (§1) Experimental method: Primary neuron cells were incubated in a medium containing Erastin (final concentration of 50 μM) for 24 hours, and then incubated in a medium containing different concentrations of the test drug and Erastin (final concentration of 50 μM) for another 24 hours. After incubation, Real time PCR was used to detect mRNA expression of GPX4 in each group of cells, CCK8 assay was used to detect cell viability in each group of cells, C11-BODIPY probe method was used to detect intracellular lipid ROS levels in each group of cells, and PGSK probe method was used to detect iron content in cells.
# (§2) The experimental data were expressed in means±SD, and statistical differences between groups were determined using one-way ANOVA and Tukey's test, with p-values less than 0.05 considered significant.
# After incubation, real time PCR was used to detect the mRNA expression of GPX4 in each group of cells. The results were presented as Mean±SD. Compared with the control group, ***p<0.0001; Compared with the model group, #p<0.05, […].
# [2] = system: cerebral ischemic injury in rats caused by autologous thrombus and thrombin; experiment: Ischemic brain injury in rats caused by autologous thrombus and thrombin (Example 6); assay type: in vivo, rat
# Method: The drug was administered once by slow tail vein injection (1 ml per minute) 2 h after modeling, and the decrease in blood flow was monitored after the injection of thrombin, and 120 min after the administration of the drug. Neurobehavioral scoring was performed to determine the neurological function of rats after 24 h. The cerebral infarction rate and cerebral water content of rats were determined using 2,3,5-triphenyltetrazolium chloride (TTC) staining method, and the pathological damage of the brain of rats administered with drug 2 h after cerebral ischemia was observed by hematoxylin-eosin (HE) staining.
# [3] = system: lipid ROS levels in Erastin-induced nerve cells; experiment: Lipid ROS levels (C11-BODIPY probe) in Erastin-induced nerve cells (Example 8); assay type: cell-based, rat; conditions: Erastin 50 μM
# Method: as §1, §2
# After incubation, the C11-BODIPY probe method was used to detect the lipid ROS levels in each group of cells. The results were presented as Mean±SD. Compared with the control group, ***p<0.0001; compared with the model group, #p<0.05, ##p<0.01.
# [4] = system: vascular endothelial-injury thrombosis model in zebrafish; experiment: Preventative effect of compound (1) on vascular endothelial injury induced thrombosis in zebrafish (Example 3); assay type: in vivo; conditions: for Cardiac erythrocyte staining intensity (pixels, mean ± SE): n = 10
# Method: Experimental method: Wild-type AB strain zebrafish were treated with 4 μg/mL punatinib for 18 h to establish vascular endothelial-injury thrombosis model in zebrafish. 150 of 5 dpf wild-type AB strain zebrafish were randomly selected and placed in six-well plates with 30 fish per well (experimental group). The zebrafish were injected with compound (1) at a dose of 2.06 ng/tail, and 6.18 ng/tail, and the positive control drug acetylsalicylic acid was given by dissolving it in water with a concentration of 30 µg/mL, while the normal control group (i.e., zebrafish treated with standard dilution water) and the model control group were set up, and the volume of each well (experimental group) was 3 mL. Except for normal control group, the remaining experimental groups were all given Punatinib by dissolving it in water to induce vascular endothelial injury thrombosis model in zebrafish. The zebrafish were co-treated with compound (1) and punatinib for a period of time under incubation condition at 28° C., and then stained with o-dianisidine. After staining, 10 zebrafish were randomly selected from each group and photographed under the microscope. The intensity of cardiac erythrocyte staining in zebrafish was analyzed using NIS-Elements D 3.10 advanced image-processing software, and the preventative effect of compound (I) on vascular endothelial injury thrombosis was evaluated based on the statistical results of cardiac erythrocyte staining intensity. The preventative effect on thrombosis is calculated as follows: […]
# Statistical analysis were performed using Analysis of Variance and Dunnett's t-test, and p<0.05 indicates a significant difference, providing a representative experimental plot.
# [5] = system: vascular inflammation in high-glucose and high-fat zebrafish; experiment: Regressive effect on vascular inflammation in high-glucose and high-fat zebrafish (Example 9); assay type: in vivo
# Method: Experimental method: 360 tails of 5 dpf macrophage fluorescent zebrafish were randomly selected and placed in beakers with 30 tails in each beaker, compound (1), compound (3), and compound (5) were given intravenously, and the positive control group was given atorvastatin calcium by dissolving it in water at a concentration of 30 μg/mL, while the normal control group (fish farming water-treated zebrafish) and the model control group were set up, and the volume of each beaker (experimental group) was 25 mL. Except for the normal control group, all other groups were given high-lipids and high-sucrose feed by dissolving it in water. Compound (1), compound (3) and compound (5) group were co-treated with high-lipids and high-sucrose feed for 30 h. The treatment was carried out up to 9 dpf, and 10 zebrafish were randomly selected from each experimental group to collect the intensity of the macrophage fluorescence within the tail vein and around the tail vein of the zebrafish under fluorescence microscope, and the results of the statistical analysis were used to evaluate the regressive effect of compound (1), compound (3), compound (5) on zebrafish vascular inflammation in the high sugar and high fat model.
smiles,measurement,setting,value
CC(=O)N[C@H](CSCC1OC2OC3C(CSC[C@@H](NC(C)=O)C(=O)[O-])OC(OC4C(CSC[C@@H](NC(C)=O)C(=O)[O-])OC(OC5C(CSC[C@@H](NC(C)=O)C(=O)[O-])OC(OC6C(CSC[C@@H](NC(C)=O)C(=O)[O-])OC(OC7C(CSC[C@@H](NC(C)=O)C(=O)[O-])OC(OC8C(CSC[C@@H](NC(C)=O)C(=O)[O-])OC(OC9C(CSC[C@@H](NC(C)=O)C(=O)[O-])OC(OC1C(O)C2O)C(O)C9O)C(O)C8O)C(O)C7O)C(O)C6O)C(O)C5O)C(O)C4O)C(O)C3O)C(=O)[O-].[Na+].[Na+].[Na+].[Na+].[Na+].[Na+].[Na+].[Na+] (stereo partly drawn) [Compound (1)],Cerebral infarction rate (%),[1]; 7.5 mg/kg (low-dose),15.18 ± 4.74 %
same,Behavioral score,[1]; 7.5 mg/kg,2.00 ± 1.07
same,Cerebral water content (%),[1]; 7.5 mg/kg,80.16 ± 1.03%
same,Cerebral infarction rate (%),[1]; 22.5 mg/kg (medium-dose),13.93 ± 6.99 %
same,Behavioral score,[1]; 22.5 mg/kg,1.87 ± 0.64
same,Cerebral water content (%),[1]; 22.5 mg/kg,79.01 ± 1.27 %
same,Cerebral infarction rate (%),[1]; 67.5 mg/kg (high-dose),12.28 ± 10.29 %
same,Behavioral score,[1]; 67.5 mg/kg,1.50 ± 0.53
same,Cerebral water content (%),[1]; 67.5 mg/kg,78.23 ± 1.84 %
same,Expression of GPX4 mRNA,"GPX4 mRNA; 1 μM, control about 1.00, Mean±SD",0.4845 ± 0.06^
same,Expression of GPX4 mRNA,GPX4 mRNA; 2.5 μM,0.5759 ± 0.07^
same,Expression of GPX4 mRNA,GPX4 mRNA; 5 μM,0.6469 ± 0.08^#
same,Expression of GPX4 mRNA,GPX4 mRNA; 10 μM,0.7093 ± 0.15^##
same,Expression of GPX4 mRNA,GPX4 mRNA; 20 μM,0.7664 ± 0.08^##
same,Expression of GPX4 mRNA,GPX4 mRNA; 40 μM,0.8503 ± 0.06^##
same,Cerebral blood flow: Percentage decrease after injection of thrombin (%),"[2]; 22.5 mg/kg group, value before administration, mean ± SD, n = 10",43.67 ± 7.17%
same,Cerebral infarction rate (%),[2]; 22.5 mg/kg i.v.,13.91 ± 10.78 %
same,Cerebral water content (%),[2]; 22.5 mg/kg i.v.,79.93 ± 1.98 %
same,Cerebral blood flow: Percentage decrease two hours after administration (%),[2]; 22.5 mg/kg i.v. once 2 h after modeling,27.14 ± 6.38 %
same,Pathological damage score,"[2]; 22.5 mg/kg i.v., HE staining, mean ± SD, n = 10",1.90 ± 1.10
same,Behavioral score,"[2]; 22.5 mg/kg i.v., after 24 h",1.60 ± 0.70
same,Lipid ROS levels (%),"[3]; 1 μM, control = 100, Mean±SD",150.18 ± 6.05^ %
same,Lipid ROS levels (%),[3]; 2.5 μM,142.58 ± 3.01^ %
same,Lipid ROS levels (%),[3]; 5 μM,137.9 ± 6.72%
same,Lipid ROS levels (%),[3]; 10 μM,132.33 ± 6.57^## %
same,Lipid ROS levels (%),[3]; 20 μM,121.82 ± 5.9^## %
same,Lipid ROS levels (%),[3]; 40 μM,114.13 ± 8.82^## %
same,Thromboprophylactic effect (%),[4]; 2.06 ng/tail,83%
same,"Cardiac erythrocyte staining intensity (pixels, mean ± SE)",[4]; 2.06 ng/tail,4601 ± 265 pixels
same,"Cardiac erythrocyte staining intensity (pixels, mean ± SE)","[4]; 2.06 ng/tail, listed as compound (1)",4601 pixels
same,Thromboprophylactic effect (%),[4]; 6.18 ng/tail,99%
same,"Cardiac erythrocyte staining intensity (pixels, mean ± SE)",[4]; 6.18 ng/tail,5044 ± 345 pixels
same,"Cardiac erythrocyte staining intensity (pixels, mean ± SE)","[4]; 6.18 ng/tail, listed as compound (1)",5044 pixels
same,Anti-inflammatory effect (%),[5]; 222 ng/tail intravenous,27*** %
same,"Fluorescence intensity of perivascular macrophage (pixels, Mean ± SE)",[5]; 222 ng/tail intravenous,134308 ± 6117 pixels
same,Anti-inflammatory effect (%),[5]; 667 ng/tail intravenous,37*** %
same,"Fluorescence intensity of perivascular macrophage (pixels, Mean ± SE)",[5]; 667 ng/tail intravenous,116848 ± 5036 pixels
same,Anti-inflammatory effect (%),[5]; 2000 ng/tail intravenous,41*** %
same,"Fluorescence intensity of perivascular macrophage (pixels, Mean ± SE)",[5]; 2000 ng/tail intravenous,108154 ± 4723 pixels
